Results as given in ChEMBL document CHEMBL1201862, “PubChem BioAssay data set” (2004).
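Where inhibition never reached the appropriate level, the endpoint shown equals the highest concentration tested. Otherwise, values were interpolated linearly from a five-concentration, 48-hour dose response in 96-well plates. Abbreviation: GI50, concentration required for 50% inhibition of growth.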 Calls of active or inactive are those of the source. Rule as the data show it: active = GI50 up to about 1.1 µM and inactive = higher.

Legend:
Assay in all cases: DTP human tumour cell line panel, 48 h
[1] = system: EKVX
[2] = system: A498
[3] = system: Malme-3M
[4] = system: HOP-62
[5] = system: TK-10
[6] = system: NCI/ADR-RES
[7] = system: SK-MEL-5
[8] = system: UO-31
[9] = system: MDA-MB-435
[10] = system: 786-0
[11] = system: SF-268
[12] = system: T47D
[13] = system: KM12
[14] = system: RPMI-8226
[15] = system: DU-145
[16] = system: NCI-H522
[17] = system: HCT-116
[18] = system: BT-549
[19] = system: UACC-62

| SMILES | GI50 [1] | GI50 [2] | GI50 [3] | GI50 [4] | GI50 [5] | GI50 [6] | GI50 [7] | GI50 [8] | GI50 [9] | GI50 [10] | GI50 [11] | GI50 [12] | GI50 [13] | GI50 [14] | GI50 [15] | GI50 [16] | GI50 [17] | GI50 [18] | GI50 [19] |
| --- | --- | --- | --- | --- | --- | --- | --- | --- | --- | --- | --- | --- | --- | --- | --- | --- | --- | --- | --- |
| COc1ccc2c(n1)Sc1nc3ccccc3nc1N2 | 12.6 µM (inactive) | > 100 µM (inactive) | 29 µM (inactive) | 16.1 µM (inactive) | 15.6 µM (inactive) | 24.7 µM (inactive) | > 100 µM (inactive) | 20 µM (inactive) | 55.1 µM (inactive) | 26.8 µM (inactive) | 58.5 µM (inactive) | > 100 µM (inactive) | 55.7 µM (inactive) | > 100 µM (inactive) | > 100 µM (inactive) | 78 µM (inactive) | 33.7 µM (inactive) | 41.6 µM (inactive) | 7.16 µM (inactive) |
| c1ccc(C2=Nc3cccc4cccc(c34)N2)cc1 | > 51.1 µM (inactive) | > 100 µM (inactive) | 43.5 µM (inactive) | > 100 µM (inactive) | 48.9 µM (inactive) | 30.8 µM (inactive) | 56.2 µM (inactive) | 21.3 µM (inactive) | 48.8 µM (inactive) | 42.8 µM (inactive) | 44.8 µM (inactive) | 4.63 µM (inactive) | 28.3 µM (inactive) | 22.6 µM (inactive) | > 90.2 µM (inactive) | 12.2 µM (inactive) | 23.3 µM (inactive) | > 44.2 µM (inactive) | 37.9 µM (inactive) |
| C/C(=N\Nc1nc2ccccc2s1)c1cccc[n+]1[O-] | 2.33 µM (inactive) | > 100 µM (inactive) | 1.09 µM (active) | 48.3 µM (inactive) | 17 µM (inactive) | 29.7 µM (inactive) | 32.8 µM (inactive) | 20 µM (inactive) | 99.1 µM (inactive) | 47.1 µM (inactive) | 36.2 µM (inactive) | 30.8 µM (inactive) | 30.1 µM (inactive) | 41.1 µM (inactive) | > 100 µM (inactive) | 26.7 µM (inactive) | 7.55 µM (inactive) | > 100 µM (inactive) | 50.1 µM (inactive) |
| Cc1ccc(S(=O)(=O)OC2=C/C(=N\c3onc(C)c3C)c3ccccc3C2=O)cc1 | > 100 µM (inactive) | > 100 µM (inactive) | 17.9 µM (inactive) | 23.6 µM (inactive) | 36.6 µM (inactive) | 25.2 µM (inactive) | 18.3 µM (inactive) | 17 µM (inactive) | 16.1 µM (inactive) | 37.1 µM (inactive) | 23.7 µM (inactive) | 24.2 µM (inactive) | 20.2 µM (inactive) | 7.96 µM (inactive) | 51.6 µM (inactive) | 7.46 µM (inactive) | 17.6 µM (inactive) | 33.7 µM (inactive) | 20.6 µM (inactive) |
| O=C(O)C1C2C=CC(O2)C1C(=O)Nc1ncccn1 (stereo not drawn) | > 100 µM (inactive) | > 100 µM (inactive) | > 100 µM (inactive) | > 100 µM (inactive) | > 100 µM (inactive) | > 100 µM (inactive) | > 100 µM (inactive) | > 100 µM (inactive) | > 100 µM (inactive) | > 100 µM (inactive) | > 100 µM (inactive) | > 100 µM (inactive) | > 100 µM (inactive) | > 100 µM (inactive) | > 100 µM (inactive) | > 100 µM (inactive) | > 100 µM (inactive) | > 100 µM (inactive) | > 100 µM (inactive) |
| COC(=O)C1CCC(=S)N1C(=O)OCc1ccccc1 (stereo not drawn) | 49 µM (inactive) | > 100 µM (inactive) | > 100 µM (inactive) | > 100 µM (inactive) | > 100 µM (inactive) | > 100 µM (inactive) | > 100 µM (inactive) | 95.7 µM (inactive) | > 100 µM (inactive) | > 100 µM (inactive) | 98.6 µM (inactive) | > 100 µM (inactive) | > 100 µM (inactive) | > 100 µM (inactive) | > 100 µM (inactive) | 86.7 µM (inactive) | 83.9 µM (inactive) | > 100 µM (inactive) | > 100 µM (inactive) |
| CCC(C#N)N(Cc1cccc(CN(C(C)=O)C(C#N)CC)c1)C(C)=O (stereo not drawn) | > 100 µM (inactive) | > 100 µM (inactive) | > 100 µM (inactive) | > 100 µM (inactive) | > 100 µM (inactive) | 84.1 µM (inactive) | > 100 µM (inactive) | > 100 µM (inactive) | > 100 µM (inactive) | > 100 µM (inactive) | > 100 µM (inactive) | 7.24 µM (inactive) | > 100 µM (inactive) | > 100 µM (inactive) | > 100 µM (inactive) | > 100 µM (inactive) | > 100 µM (inactive) | > 100 µM (inactive) | > 100 µM (inactive) |
